Like-named read-outs stand apart in the source and are kept apart here.
How the values were obtained:
[1] = tested on: HCT-116; test: Cytotoxicity assay (SRB), HCT-116; assay type: cell-based; settings: HCT116 cells, SRB, read-out: In Vitro Cellular Activity IC50 HCT116
How it was run: (§1)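 BT474 (12000 cells/well) was treated for 6 days, whereas HCT-116 (4000), LoVo (6000) and MCF-7 (6000) were treated for 3 days, all in RPMI 1640 containing 5% FBS. Surviving-cell percentage came from SRB dye binding measured at 540 nm.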

[2] = target: T1, cyclin B/CDK1 enzyme (Homo sapiens, UniProt P06493); test: CDK1 ELISA kinase assay (phospho-Rb ser 795 detection); assay type: biochemical
T1 construct: purchased New England BioLabs; host or cells: Sf9 insect cells, recombinant baculovirus
T1 sequence (P06493 whole entry): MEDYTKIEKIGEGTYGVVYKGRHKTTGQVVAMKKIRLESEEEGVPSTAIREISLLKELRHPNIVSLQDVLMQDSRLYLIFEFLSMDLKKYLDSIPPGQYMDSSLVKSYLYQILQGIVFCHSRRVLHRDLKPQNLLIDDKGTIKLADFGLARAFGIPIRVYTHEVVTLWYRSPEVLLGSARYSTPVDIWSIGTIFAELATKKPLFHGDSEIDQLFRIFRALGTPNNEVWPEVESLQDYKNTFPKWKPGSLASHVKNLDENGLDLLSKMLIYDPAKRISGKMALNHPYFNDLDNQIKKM
T1 sequence (P14635 whole entry partner): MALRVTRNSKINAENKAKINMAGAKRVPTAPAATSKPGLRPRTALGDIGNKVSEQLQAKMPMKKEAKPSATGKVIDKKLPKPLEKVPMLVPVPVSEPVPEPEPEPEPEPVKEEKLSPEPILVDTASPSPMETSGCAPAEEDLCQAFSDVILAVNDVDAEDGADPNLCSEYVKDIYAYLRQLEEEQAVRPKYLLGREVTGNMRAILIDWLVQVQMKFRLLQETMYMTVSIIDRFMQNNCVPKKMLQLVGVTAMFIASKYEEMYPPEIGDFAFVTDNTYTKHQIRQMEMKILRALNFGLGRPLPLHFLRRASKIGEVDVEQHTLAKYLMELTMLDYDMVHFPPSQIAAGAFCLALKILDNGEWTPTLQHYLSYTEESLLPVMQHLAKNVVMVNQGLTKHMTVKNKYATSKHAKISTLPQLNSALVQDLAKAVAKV
How it was run: (§2)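 Inhibition was derived from A450 relative to control wells lacking compound, following an anti-phospho-Rb Ser795 sandwich of HRP detection. The reactions combined coated GST-Rb fragment, 200 μM ATP and baculovirus-expressed cyclin/CDK enzymes, incubated for 1 h at 30° C.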

[3] = tested on: BT474; test: Cytotoxicity assay (SRB), BT474; assay type: cell-based
How it was run: as §1

[4] = tested on: LoVo; test: Cytotoxicity assay (SRB), LoVo; assay type: cell-based; settings: LoVo cells, SRB, read-out: In Vitro Cellular Activity IC50 LOVO
How it was run: as §1

[5] = target: T2, cyclin D1/cdk 4 enzyme (Homo sapiens, UniProt P11802); test: CDK4 ELISA kinase assay (phospho-Rb ser 795 detection); assay type: biochemical
T2 construct: made in house; host or cells: Sf9 insect cells, recombinant baculovirus
T2 sequence (P11802 whole entry, species assumed): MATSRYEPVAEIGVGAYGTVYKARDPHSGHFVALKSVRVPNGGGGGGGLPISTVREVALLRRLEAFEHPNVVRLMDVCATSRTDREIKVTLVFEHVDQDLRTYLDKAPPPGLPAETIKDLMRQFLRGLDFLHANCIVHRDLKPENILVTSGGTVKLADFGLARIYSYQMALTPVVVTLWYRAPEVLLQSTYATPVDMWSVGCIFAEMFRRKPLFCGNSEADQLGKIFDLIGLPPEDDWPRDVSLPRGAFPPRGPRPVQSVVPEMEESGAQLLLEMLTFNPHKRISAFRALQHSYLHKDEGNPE
T2 sequence (P24385 whole entry partner, species assumed): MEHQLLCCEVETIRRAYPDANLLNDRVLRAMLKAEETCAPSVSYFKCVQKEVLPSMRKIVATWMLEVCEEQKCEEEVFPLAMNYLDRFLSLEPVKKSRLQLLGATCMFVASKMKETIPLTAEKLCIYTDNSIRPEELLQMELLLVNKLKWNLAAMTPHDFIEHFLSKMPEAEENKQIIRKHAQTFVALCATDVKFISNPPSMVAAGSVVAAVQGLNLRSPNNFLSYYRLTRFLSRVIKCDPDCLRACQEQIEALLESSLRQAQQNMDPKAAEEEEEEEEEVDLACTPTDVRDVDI
How it was run: as §2

[6] = tested on: MCF-7; test: Cytotoxicity assay (SRB), MCF-7; assay type: cell-based; settings: MCF-7 cells, SRB, read-out: In Vitro Cellular Activity IC50 MCF-7
How it was run: as §1

[7] = target: T3, cyclin E/CDK2 enzyme (Homo sapiens, UniProt P24941); test: CDK2 ELISA kinase assay (phospho-Rb ser 795 detection); assay type: biochemical
T3 construct: made in house; host or cells: Sf9 insect cells, recombinant baculovirus
How it was run: as §2

[8] = tested on: SK-UT-1B; test: In Vitro Cellular Activity (Table III), SK-UT-1B; assay type: cell-based; settings: SK-UT-1B cells
[9] = I.V. and P.O. Dosing in Mice; assay type: in vivo; settings: for AUC(0-inf) / bioavailability: mouse, in vivo; for bioavailability: po 50 mg/kg vs i.v. 2 mg/kg
[10] = Homo sapiens, HCT-116, 72 h, three days
[11] = In Vitro Enzyme Assays, read-out: CDK1 IC50
[12] = Homo sapiens, BT-474, 144 h, BT474 cells, SRB, 6 days; read-out: In Vitro Cellular Activity IC50 BT474
[13] = Homo sapiens, LoVo, 72 h, three days
[14] = In Vitro Enzyme Assays, 200 μM ATP, read-out: CDK4 IC50
[15] = Homo sapiens, MCF7, 72 h, three days
[16] = In Vitro Enzyme Assays, read-out: CDK2 IC50
[17] = Homo sapiens, HCT-116, 72 h, 3 days
[18] = In Vitro Enzyme Assay, cyclin B/CDK1, read-out: CDK1 IC50
[19] = Homo sapiens, BT-474, 144 h, BT474 cells, 6 days, SRB; read-out: In Vitro Cellular Activity IC50 BT474
[20] = Homo sapiens, LoVo, 72 h, 3 days
[21] = In Vitro Enzyme Assay, cyclin D1/cdk 4, read-out: CDK4 IC50
[22] = Homo sapiens, MCF7, 72 h, 3 days
[23] = In Vitro Enzyme Assay, cyclin E/CDK2, read-out: CDK2 IC50
[24] = iv, 2 mg/kg, dose i.v. 2 mg/kg, read-out: aucinf obs (i.v.)
[25] = BT474 cells, SRB, 6 days; read-out: In Vitro Cellular Activity IC50 BT474

Row | IC50 [2, 11] [µM] | IC50 [5, 14] [µM] | IC50 [7, 16] [µM] | IC50 ([8]; Homo sapiens, Skut1B) [µM] | Compound | IC50 [1, 10] [µM] | IC50 [3, 12] [µM] | IC50 [4, 13] [µM] | IC50 [6, 15] [µM] | also measured
1 | > 29 | > 50 | > 29 | 18.3 | O=C1NC(=O)c2ccccc2/C1=C/Nc1ccc(N2CCOCC2)cc1 [Example 6, (4Z)-4-{[(4-Morpholin-4-ylphenyl)amino]methylene}isoquinoline-1,3(2H,4H)-dione] | > 50 | > 50 | > 50 | > 50 | 
2 | > 32 | > 50 | > 32 | > 32 | COc1ccc(/C=C2/C(=O)NC(=O)c3ccccc32)cc1OC [Example 12, (4E)-4-(3,4-dimethoxybenzylidene)isoquinoline-1,3(2H,4H)-dione] | 2.1 | > 50 | 5.4 | 14.5 | 
3 |  |  |  | 18.4 | Cn1ccnc1Sc1ccc(N/C=C2\C(=O)NC(=O)c3ccccc32)cc1Cl [Example 14, (4Z-4-[{3-Chloro-4[(1-methyl-1H-imidazole-2-uy)thio]phenyl}amino)methylene]isoquinoline-1,3(2H,4H)-dione] | 8.7 | 38 | > 50 | > 50 | melting point: 264 to 265 °C
4 |  |  |  | 18.5 | O=C1NC(=O)c2ccccc2/C1=C/Nc1cccc(CN2CCCCC2)c1 [Example 16, (4Z)-4-({[3-(Piperidin-1-ylmethyl)phenyl]amino}methylene)isoquinoline-1,3(2H,4H)-dione] | 14 | 45 | 14 | 19 | melting point: 173 to 174 °C
5 | > 27 | 10.7 | 21.6 | 21.4 | O=C1NC(=O)c2ccccc2/C1=C/Nc1ccc(CN2CCOCC2)cc1 [Example 19, (4Z)-4-({[4-(Morpholin-4-ylmethyl)phenyl]amino}methylene)isoquinoline-1,3(2H,4H)-dione] | 20 |  |  | 15.9 | 
6 |  |  |  | 5.4 | O=C1NC(=O)c2ccccc2/C1=C/Nc1cccc(CCN2CCCC2)c1 [Example 22, (4Z)-4-({[3-(2-Pyrrolidin-1-ylethyl)phenyl]amino}methylene)isoquinoline-1,3(2H,4H)-dione] | 11 | 21 | 19 | 10 | 
7 | > 29 | 6.6 | 22.7 | 16.2 | CN(C)Cc1ccc(N/C=C2\C(=O)NC(=O)c3ccccc32)cc1 [Example 25, (4Z)-4-[({4[(Dimethylamino)methyl]phenyl}amino)methylene]isoquinolin-1,3(2H,4H)-dione] | 11.5 |  |  | 5.6 | 
8 | > 50 | 1.4 | > 50 | 3.6 | CN1CCN(c2ccc(N/C=C3\C(=O)NC(=O)c4ccc(Br)cc43)cc2)CC1 [Example 27, (4Z)-6-Bromo-4-({[4-(4-methylpiperazin-1-yl)phenyl}amino}methylene)isoquinoline-1,3(2H,4H)-dione] | 3.1 | 3.1 | 3.8 | 3 | 
9 | 7.2 | 11 | > 50 | 3.3 | CN1CCN(c2ccc(N/C=C3\C(=O)NC(=O)c4ccc([N+](=O)[O-])cc43)cc2)CC1 [Example 33, (4Z)-6-Nitro-4-({[4-(4-methylpiperazin-1-yl)phenyl}amino}methylene)isoquinoline-1,3(2H,4H)-dione] | 3.3 | 5.2 | 3.2 | 11 | 
10 | > 50 |  | 47 | 31 | CN1CCN(c2ccc(N/C=C3\C(=O)NC(=O)c4cc(Br)ccc43)cc2)CC1 [Example 45, (4Z)-7-Bromo-4-({[4-(4-methylPiperzin-1-yl)phenyl]amino}methylene)isoquinoline-1,3(2H,4H)-dione] | 5 | 19 | 33 | 18.8 | 
11 |  |  |  |  | O=C1NC(=O)c2ccc(I)cc2/C1=C/NCc1cc(O)c(-c2ccccc2)cn1 [Example 524, (4Z)-{[(4-Hydroxy-5-phenyl-pyridin-2-ylmethyl)-amino]-methylene}-6-iodo-4H-isoquinoline-1,3-dione] |  |  |  |  | IC50 [1, 17]: 0.11 µM; IC50 [2, 18]: 27.9 µM; IC50 [3, 19]: 0.03 µM; IC50 [4, 20]: 0.12 µM; melting point: 292 to 293 °C (dec.); IC50 [5, 21]: 0.04 µM; IC50 [6, 22]: 0.89 µM; IC50 [7, 23]: 2.2 µM; Cl_obs ([9]; dose i.v. 2 mg/kg): 35 mL/min/kg; Vss_obs ([9]; dose i.v. 2 mg/kg): 2.4 L/kg; AUC(0-inf) [9, 24]: 952 ng·h/mL; bioavailability ([9]; po, 50 mg/kg): 0%
12 |  |  |  |  | O=C1NC(=O)c2ccc(I)cc2/C1=C/NCc1cc(O)c(-c2ccoc2)cn1 [Example 527, (4Z)-{[(5-Furan-3-yl-4-hydroxy-pyridin-2-ylmethyl)-amino]-methylene}-6-iodo-4H-isoquinoline-1,3-dione] |  |  |  |  | IC50 [1, 17]: 0.55 µM; IC50 [2, 18]: 13.5 µM; IC50 [3, 19]: 0.09 µM; IC50 [4, 20]: 0.49 µM; melting point: 213 to 228 °C (dec.); IC50 [5, 21]: 0.03 µM; IC50 [6, 22]: 2.7 µM; IC50 [7, 23]: 2.3 µM; Cl_obs ([9]; dose i.v. 2 mg/kg): 5 mL/min/kg; Vss_obs ([9]; dose i.v. 2 mg/kg): 0.5 L/kg; HL_Lambda_z ([9]; dose po 50 mg/kg): 3.4 h; AUC(0-inf) [9, 24]: 6060 ng·h/mL; AUC(0-inf) ([9]; po, 50 mg/kg, dose po 50 mg/kg, read-out: aucinf obs (po)): 1400 ng·h/mL; bioavailability ([9]; po, 50 mg/kg): 0.9%
13 | > 32 | 42 | 13 | 4.4 | O=C1NCc2ccccc2/C1=C/Nc1ccc(-c2c[nH]cn2)cc1 [compound 3] | 7.8 | 20 | 12 | 11 | 
14 | > 28 |  |  | 12.7 | CN1CCN(c2ccc(N/C=C3\C(=O)NC(=O)c4ccccc43)cc2)CC1 [compound 4] | 9.1 | 18 | 13 | 5.5 | 
15 | > 33 | 9.5 | 5.6 | 4.3 | O=C1NC(=O)c2ccccc2/C1=C/Nc1ccc2cn[nH]c2c1 [compound 7] | 6.57 |  |  | 11.2 | 
16 | > 50 | > 50 | 1.4 | 4.9 | O=C1NC(=O)c2ccc(Br)cc2/C1=C/NCc1cccnc1 [compound 30] | 9.2 | 31 | 14 | 15 | 
17 | > 32 | > 50 | > 32 |  | (4E)-4-(2,3-dimethoxybenzylidene)isoquinoline-1,3(2H,4H)-dione-(4Z)-4-(2,3-dimethoxybenzylidene)isoquinoline-1,3(2H,4H)-dione (1:1) [Example 9] |  |  |  |  | IC50 ([1]; three days): 2.5 µM; IC50 [3, 25]: 48 µM; IC50 ([4]; three days): 6.8 µM; IC50 ([6]; three days): 9.7 µM; IC50 [8]: 15.1 µM
18 | > 34 | > 50 | > 34 |  | (4E)-4-[4-(dimethylamino)benzylidene]isoquinoline-1,3(2H,4H)-dione-(4Z)-4-[4-(dimethylamino)benzylidene]isoquinoline-1,3(2H,4H)-dione (1:1) [Example 10] |  |  |  |  | IC50 ([1]; three days): 2.3 µM; IC50 [3, 25]: > 50 µM; IC50 ([4]; three days): 5.9 µM; IC50 ([6]; three days): 12.5 µM; IC50 [8]: 23.6 µM
19 |  |  |  |  | (4Z)-4-[({3-Chloro-4-{(4chlorobenzyl)oxy]phenyl}amino)methylene]isoquinoline-1,3(2H,4H-dione [Example 15] |  |  |  |  | IC50 ([1]; three days): 10.3 µM; IC50 [3, 25]: > 50 µM; IC50 ([4]; three days): 50 µM; IC50 ([6]; three days): 28 µM; IC50 [8]: 11.6 µM
